Laboratory results taken from US6710060B2, “4-hydroxypiperidine derivatives having antiarrhythmic activity” (Mochida Pharmaceutical Co., Ltd., priority 1999, dated 2004).
Structures can show the parent of a compound that is named as a salt.

## CCCCOc1ccc(N(C)CCC2(O)CCN(Cc3ccc4c(c3)OCO4)CC2)cc1 (as salt: hydrochloride) [Example 162, 4-[2-[N-(4-n-butoxyphenyl)-N-methylamino]ethyl]-1-(3,4-methylenedioxyphenylmethyl)piperidin-4-ol dihydrochloride]
  melting point: 211 °C (dec.)

## CCCCOc1ccc(N(C)CCC2(O)CCN(CCc3ccc(F)cc3)CC2)cc1 (as salt: hydrochloride) [Example 176, 4-[2-[N-(4-n-butoxyphenyl)-N-methylamino]ethyl]-1-[2-(4-fluorophenyl)ethyl]piperidin-4-ol dihydrochloride]
  melting point: 207 °C (dec.)

## CCCCOc1ccc(N(C)CCC2(O)CCN(Cc3ccc(F)cc3)CC2)cc1 (as salt: hydrochloride) [Example 177, 4-[2-[N-(4-n-butoxyphenyl)-N-methylamino]ethyl]-1(4-fluorophenylmethyl)piperidin-4-ol dihydrochloride]
  melting point: 209 °C (dec.)

## CCCCOc1ccc(N(C)CCC2(O)CCN(CCc3ccc(F)cc3F)CC2)cc1 (as salt: hydrochloride) [Example 183, 4-[2-[N-(4-n-butoxyphenyl)-N-methylamino]ethyl]-1-[2-(2,4-difluorophenyl)ethyl]piperidin-4-ol dihydrochloride]
  melting point: 209 °C (dec.)

## CCCCOc1ccc(N(C)CC(O)C2(O)CCN(CCc3ccc(F)cc3)CC2)cc1 (stereo not drawn) (as salt: hydrochloride) [Example 196, 4-[2-[N-(4-n-butoxyphenyl)-N-methylamino]-1-hydroxyethyl]-1-[2-(4-fluorophenyl)ethyl]piperidin-4-ol dihydrochloride]
  melting point: 191.2 to 198.7 °C

## CCCCOc1ccc(N(C)CCC2(O)CCN(CC(O)c3ccc(F)cc3)CC2)cc1 (stereo not drawn) (as salt: hydrochloride) [Example 198, 4-[2-[N-(4-n-butoxyphenyl)-N-methylamino]ethyl]-1-[2-(4-fluorophenyl)-2-hydroxyethyl]piperidin-4-ol dihydrochloride]
  melting point: 174.9 to 184.5 °C

## CCCCOc1ccc(N(C)CCC2(OC)CCN(Cc3ccccc3)CC2)cc1 (as salt: hydrochloride) [Example 201, 1-benzyl-4-methoxy-4-[2-[N-(4-n-butoxyphenyl)-N-methylamino]ethyl]piperidine dihydrochloride]
  melting point: 215 °C (dec.)

## CC(C)Oc1ccc(N(C)CCC2(O)CCN(Cc3ccc(Br)cc3)CC2)cc1 (as salt: hydrochloride) [Example 220, 1-(4-bromophenylmethyl)-4-[2-[N-methyl-N-(4-isopropoxyphenyl)amino]ethyl]piperidin-4-ol dihydrochloride]
  melting point: 224.4 to 226.2 °C

## CC(C)Oc1ccc(N(C)CCC2(O)CCN(Cc3ccc(C(F)(F)F)cc3)CC2)cc1 (as salt: hydrochloride) [Example 221, 4-[2-[N-methyl-N-(4-isopropoxyphenyl)amino]ethyl]-1-[4-(trifluoromethyl)phenylmethyl]piperidin-4-ol dihydrochloride]
  melting point: 241.2 to 242.6 °C

## CC(C)Oc1ccc(N(C)CCC2(O)CCN(Cc3ccc(C#N)cc3)CC2)cc1 (as salt: hydrochloride) [Example 226, 1-(4-cyanophenylmethyl)-4-[2-[N-methyl-N-(4-isopropoxyphenyl)amino]ethyl]piperidin-4-ol dihydrochloride]
  melting point: 220.8 to 222.2 °C

## CC(C)Oc1ccc(N(C)CCC2(O)CCN(Cc3ccc(OC(F)(F)F)cc3)CC2)cc1 (as salt: hydrochloride) [Example 236, 4-[2-[N-methyl-N-(4-isopropoxyphenyl)amino]ethyl]-1-(4-trifluoromethoxyphenylmethyl)piperidin-4-ol dihydrochloride]
  melting point: 233.2 to 234.9 °C

## CC(C)Oc1ccc(N(C)CCC2(O)CCN(Cc3ccc(Br)cc3F)CC2)cc1 (as salt: hydrochloride) [Example 240, 1-(4-bromo-2-fluorophenylmethyl)-4-[2-[N-methyl-N-(4-isopropoxyphenyl)amino]ethyl]piperidin-4-ol dihydrochloride]
  melting point: 228.3 to 229.1 °C

## CC(C)Oc1ccc(N(C)CCC2(O)CCN(Cc3cccs3)CC2)cc1 (as salt: hydrochloride) [Example 254, 4-[2-[N-methyl-N-(4-isopropoxyphenyl)amino]ethyl]-1(2-thienylmethyl)piperidin-4-ol dihydrochloride]
  melting point: 216.5 to 217.5 °C

## CCCCCOc1ccc(N(C)CCC2(O)CCN(Cc3ccccc3)CC2)cc1 [Example 15, 1-Benzyl-4-[2-[N-methyl-N-(4-n-pentyloxyphenyl)-amino]ethyl]piperidin-4-ol]
  melting point: 58.5 to 60.3 °C

## CC(C)COc1ccc(N(C)CCC2(O)CCN(Cc3ccccc3)CC2)cc1 [Example 16, 1-Benzyl-4-[2-[N-(4-isobutoxyphenyl)-N-methylamino]-ethyl]piperidin-4-ol]
  melting point: 50.6 to 52.5 °C

## CN(CCC1(O)CCN(Cc2ccccc2)CC1)c1ccc(OC2CCC2)cc1 [Example 17, 1-Benzyl-4-[2-[N-(4-cyclobutoxyphenyl)-N-methylamino]-ethyl]piperidin-4-ol]
  melting point: 68.6 to 69.8 °C

## CCCCOc1ccc(N(C)CCC2(O)CCN(Cc3ccc(Cl)cc3)CC2)cc1 [Example 20, 4-[2-[N-(4-n-butoxyphenyl)-N-methylamino]ethyl]-1-(4-chlorophenylmethyl)piperidin-4-ol]
  melting point: 67.7 to 68.3 °C

## CCCCOc1ccc(N(C)CCC2(O)CCN(Cc3ccc(C(F)(F)F)cc3)CC2)cc1 [Example 21, 4-[2-[N-(4-n-butoxyphenyl)-N-methylamino]ethyl]-1-[4-(trifluoromethyl)phenylmethyl]piperidin-4-ol]
  melting point: 77.4 to 78.2 °C

## CCCCOc1ccc(N(C)CCC2(O)CCN(Cc3ccc(C#N)cc3)CC2)cc1 [Example 22, 4-[2-[N-(4-n-butoxyphenyl)-N-methylamino]ethyl]-1(4-cyanophenylmethyl)piperidin-4-ol]
  melting point: 83.5 to 85.5 °C

## CCCCOc1ccc(N(C)CCC2(O)CCN(Cc3ccc(C(=O)OC)cc3)CC2)cc1 [Example 23, 4-[2-[N-(4-n-butoxyphenyl)-N-methylamino]ethyl]-1-(4-methoxycarbonylphenylmethyl)piperidin-4-ol]
  melting point: 82.5 to 82.8 °C

## CCCCOc1ccc(N(C)CCC2(O)CCN(Cc3ccc(N(C)C)cc3)CC2)cc1 [Example 24, 4-[2-[N-(4-n-butoxyphenyl)-N-methylamino]ethyl]-1-[4-(dimethylamino)phenylmethyl]piperidin-4-ol]
  melting point: 71.3 to 73 °C

## CCCCOc1ccc(N(C)CCC2(O)CCN(Cc3cccc(F)c3)CC2)cc1 [Example 29, 4-[2-[N-(4-n-butoxyphenyl)-N-methylamino]ethyl]-1-(3-fluorophenylmethyl)piperidin-4-ol]
  melting point: 46.7 to 47.2 °C

## CCCCOc1ccc(N(C)CCC2(O)CCN(Cc3ccc(F)c(F)c3)CC2)cc1 [Example 30, 4-[2-[N-(4-n-butoxyphenyl)-N-methylamino]ethyl]-1-(3,4-difluorophenylmethyl)piperidin-4-ol]
  melting point: 49.8 to 50.5 °C

## CCCCOc1ccc(N(C)CCC2(O)CCN(Cc3ccc(C)cc3)CC2)cc1 [Example 31, 4-[2-[N-(4-n-butoxyphenyl)-N-methylamino]ethyl]-1(4-methylphenylmethyl)piperidin-4-ol]
  melting point: 73.3 to 75 °C
